Compound in assay [1]: NC(=O)CCCCC1CCSS1 [lipoamide]
In words: thermal stability z-score vs DMSO; higher = more thermally stabilized by treatment. As to conditions: HeLa, lipoamide concentration 100 µM. The procedure: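 Cellular thermal proteome profiling in HeLa cells. Cells were treated with 100 µM lipoamide for 1 h, with or without 1 mM arsenate for a further 1 h, then heated to ten temperatures (37-66.3 °C), and soluble protein was quantified by TMT mass spectrometry relative to 0.1% DMSO controls. The thermal stability score (sum of log2 fold changes minus the abundance score) was transformed to a z-score; mean of n = 3 experiments.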

Compound in assay [2]: O=[As]([O-])(O)O.[K+] [potassium arsenate]
The assay is described as above. The following applies: HeLa; arsenate concentration 1 mM. The procedure: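 Cellular thermal proteome profiling in HeLa cells treated with 1 mM arsenate for 1 h (DMSO pretreatment), heated to ten temperatures (37-66.3 °C). Soluble protein was quantified by TMT mass spectrometry relative to DMSO controls; the thermal stability score was transformed to a z-score; mean of n = 3 experiments.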

The mark [3] stands for this setting: arsenate co-treatment: 1 mM arsenate 1 h.
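Note: each temperature applied for 3 min, abundance score taken as mean log2 fold change at the two lowest temperatures, z-score obtained by mean subtraction and division by SD.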

Chain of UniProt P48729 (P48729 whole entry, looked up): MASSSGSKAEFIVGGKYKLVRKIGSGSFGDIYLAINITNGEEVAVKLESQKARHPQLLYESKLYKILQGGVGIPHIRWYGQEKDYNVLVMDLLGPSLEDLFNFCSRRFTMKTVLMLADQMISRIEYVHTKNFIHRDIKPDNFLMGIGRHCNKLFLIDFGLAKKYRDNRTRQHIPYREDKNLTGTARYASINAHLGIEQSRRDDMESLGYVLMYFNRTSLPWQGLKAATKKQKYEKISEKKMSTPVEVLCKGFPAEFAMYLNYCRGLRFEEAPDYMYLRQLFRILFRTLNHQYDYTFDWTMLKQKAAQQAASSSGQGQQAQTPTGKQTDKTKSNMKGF
Chain of UniProt P55060 (P55060 whole entry): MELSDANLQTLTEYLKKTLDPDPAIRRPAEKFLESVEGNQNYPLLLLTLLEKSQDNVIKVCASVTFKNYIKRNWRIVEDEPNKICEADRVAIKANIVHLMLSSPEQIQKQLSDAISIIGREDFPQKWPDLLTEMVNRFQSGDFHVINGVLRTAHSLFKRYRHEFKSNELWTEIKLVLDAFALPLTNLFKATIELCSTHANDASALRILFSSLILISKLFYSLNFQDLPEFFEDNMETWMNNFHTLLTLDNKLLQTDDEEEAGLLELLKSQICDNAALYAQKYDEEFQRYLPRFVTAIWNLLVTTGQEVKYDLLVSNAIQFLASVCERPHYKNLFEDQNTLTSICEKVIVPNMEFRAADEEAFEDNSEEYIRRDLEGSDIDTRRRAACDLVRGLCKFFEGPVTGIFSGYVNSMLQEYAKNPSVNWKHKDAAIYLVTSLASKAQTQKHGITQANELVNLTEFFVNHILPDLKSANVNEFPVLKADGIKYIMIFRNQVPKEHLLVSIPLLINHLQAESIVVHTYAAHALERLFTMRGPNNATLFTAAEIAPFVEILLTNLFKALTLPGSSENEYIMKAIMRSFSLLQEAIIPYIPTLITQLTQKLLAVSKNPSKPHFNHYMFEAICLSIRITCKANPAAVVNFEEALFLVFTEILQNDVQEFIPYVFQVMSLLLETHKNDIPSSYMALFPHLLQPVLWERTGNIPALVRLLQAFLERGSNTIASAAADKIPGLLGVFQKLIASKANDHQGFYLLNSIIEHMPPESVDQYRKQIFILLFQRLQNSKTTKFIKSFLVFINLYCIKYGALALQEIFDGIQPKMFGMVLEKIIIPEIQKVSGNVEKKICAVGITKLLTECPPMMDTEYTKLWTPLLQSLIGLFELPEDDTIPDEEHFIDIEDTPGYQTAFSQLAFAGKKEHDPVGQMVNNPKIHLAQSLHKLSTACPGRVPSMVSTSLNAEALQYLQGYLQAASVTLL
Chain of UniProt P04080 (P04080 whole entry): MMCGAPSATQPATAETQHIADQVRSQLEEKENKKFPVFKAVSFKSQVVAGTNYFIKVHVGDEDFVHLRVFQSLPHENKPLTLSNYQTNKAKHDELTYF
Chain of UniProt Q12996 (Q12996 whole entry): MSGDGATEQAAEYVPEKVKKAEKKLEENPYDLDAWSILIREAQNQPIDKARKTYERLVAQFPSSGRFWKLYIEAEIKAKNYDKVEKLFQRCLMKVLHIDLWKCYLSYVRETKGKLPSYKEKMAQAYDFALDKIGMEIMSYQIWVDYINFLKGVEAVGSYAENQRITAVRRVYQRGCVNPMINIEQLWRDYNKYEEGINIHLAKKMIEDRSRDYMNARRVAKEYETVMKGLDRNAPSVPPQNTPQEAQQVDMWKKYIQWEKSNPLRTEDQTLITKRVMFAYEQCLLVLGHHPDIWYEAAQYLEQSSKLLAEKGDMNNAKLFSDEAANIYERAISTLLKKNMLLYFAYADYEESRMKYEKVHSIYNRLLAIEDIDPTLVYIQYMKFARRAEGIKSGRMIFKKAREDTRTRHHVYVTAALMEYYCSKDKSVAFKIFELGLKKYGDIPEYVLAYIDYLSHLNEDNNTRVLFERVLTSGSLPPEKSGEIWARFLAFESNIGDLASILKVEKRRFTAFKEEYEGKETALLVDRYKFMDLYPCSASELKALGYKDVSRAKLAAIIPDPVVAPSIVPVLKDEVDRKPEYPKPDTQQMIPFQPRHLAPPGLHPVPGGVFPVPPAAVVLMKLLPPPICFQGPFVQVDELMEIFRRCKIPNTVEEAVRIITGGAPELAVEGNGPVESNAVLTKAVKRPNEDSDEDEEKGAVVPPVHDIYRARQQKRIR
Chain of UniProt P19784 (P19784 whole entry, looked up): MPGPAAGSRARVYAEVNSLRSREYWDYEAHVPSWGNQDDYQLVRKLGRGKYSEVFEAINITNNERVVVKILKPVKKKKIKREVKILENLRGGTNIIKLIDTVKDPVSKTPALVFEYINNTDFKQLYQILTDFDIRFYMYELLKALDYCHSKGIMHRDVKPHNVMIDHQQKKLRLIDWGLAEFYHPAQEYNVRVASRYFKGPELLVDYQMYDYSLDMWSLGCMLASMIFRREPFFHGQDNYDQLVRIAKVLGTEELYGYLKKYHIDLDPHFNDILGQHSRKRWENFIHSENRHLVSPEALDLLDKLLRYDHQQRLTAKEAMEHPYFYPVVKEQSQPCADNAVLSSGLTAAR
Chain of UniProt P01034 (P01034 whole entry): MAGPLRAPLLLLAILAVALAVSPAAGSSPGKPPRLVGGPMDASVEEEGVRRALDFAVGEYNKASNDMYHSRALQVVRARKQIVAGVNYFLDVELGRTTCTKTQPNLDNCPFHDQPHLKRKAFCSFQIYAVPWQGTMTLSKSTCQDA
Chain of UniProt Q16527 (Q16527 whole entry): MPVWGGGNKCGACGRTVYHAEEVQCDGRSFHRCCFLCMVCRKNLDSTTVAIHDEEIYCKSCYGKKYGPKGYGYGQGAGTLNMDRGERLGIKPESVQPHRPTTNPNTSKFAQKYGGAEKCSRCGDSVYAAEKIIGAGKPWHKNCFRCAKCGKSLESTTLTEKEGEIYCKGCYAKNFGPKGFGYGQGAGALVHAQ
Chain of UniProt P21291 (P21291 whole entry): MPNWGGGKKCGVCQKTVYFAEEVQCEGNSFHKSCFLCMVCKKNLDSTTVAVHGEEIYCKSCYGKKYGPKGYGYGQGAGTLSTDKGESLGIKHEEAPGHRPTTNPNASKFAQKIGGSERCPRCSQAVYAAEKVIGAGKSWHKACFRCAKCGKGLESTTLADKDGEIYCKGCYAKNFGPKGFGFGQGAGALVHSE
Chain of UniProt P41240 (P41240 whole entry, looked up): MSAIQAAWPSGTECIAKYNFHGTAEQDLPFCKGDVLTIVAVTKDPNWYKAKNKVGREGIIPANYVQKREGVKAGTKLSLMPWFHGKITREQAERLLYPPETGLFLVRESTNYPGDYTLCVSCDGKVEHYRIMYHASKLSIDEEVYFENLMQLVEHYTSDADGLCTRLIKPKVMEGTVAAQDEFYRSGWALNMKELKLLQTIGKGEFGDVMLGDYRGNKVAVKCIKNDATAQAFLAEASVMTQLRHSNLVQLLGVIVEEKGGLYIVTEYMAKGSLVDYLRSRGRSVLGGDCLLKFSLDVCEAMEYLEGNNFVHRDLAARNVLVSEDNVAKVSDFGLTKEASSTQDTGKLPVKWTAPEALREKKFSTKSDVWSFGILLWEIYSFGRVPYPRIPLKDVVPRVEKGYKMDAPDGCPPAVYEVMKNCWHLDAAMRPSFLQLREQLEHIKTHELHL
Chain of UniProt P33240 (P33240 whole entry): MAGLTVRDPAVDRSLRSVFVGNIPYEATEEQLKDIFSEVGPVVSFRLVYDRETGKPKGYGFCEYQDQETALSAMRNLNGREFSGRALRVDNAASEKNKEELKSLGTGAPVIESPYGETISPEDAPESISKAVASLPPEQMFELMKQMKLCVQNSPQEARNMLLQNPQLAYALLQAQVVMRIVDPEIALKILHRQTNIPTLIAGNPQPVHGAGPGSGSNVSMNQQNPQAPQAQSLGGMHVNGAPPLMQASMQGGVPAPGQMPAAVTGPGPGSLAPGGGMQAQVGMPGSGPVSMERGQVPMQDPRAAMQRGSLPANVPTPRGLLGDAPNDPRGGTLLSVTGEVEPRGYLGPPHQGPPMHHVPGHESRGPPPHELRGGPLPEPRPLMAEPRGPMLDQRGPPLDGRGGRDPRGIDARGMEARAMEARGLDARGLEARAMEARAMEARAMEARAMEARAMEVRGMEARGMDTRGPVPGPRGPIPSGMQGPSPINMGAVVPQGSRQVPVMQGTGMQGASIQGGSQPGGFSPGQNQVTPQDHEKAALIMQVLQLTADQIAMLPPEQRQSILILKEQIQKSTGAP
Chain of UniProt Q9H0L4 (Q9H0L4 whole entry): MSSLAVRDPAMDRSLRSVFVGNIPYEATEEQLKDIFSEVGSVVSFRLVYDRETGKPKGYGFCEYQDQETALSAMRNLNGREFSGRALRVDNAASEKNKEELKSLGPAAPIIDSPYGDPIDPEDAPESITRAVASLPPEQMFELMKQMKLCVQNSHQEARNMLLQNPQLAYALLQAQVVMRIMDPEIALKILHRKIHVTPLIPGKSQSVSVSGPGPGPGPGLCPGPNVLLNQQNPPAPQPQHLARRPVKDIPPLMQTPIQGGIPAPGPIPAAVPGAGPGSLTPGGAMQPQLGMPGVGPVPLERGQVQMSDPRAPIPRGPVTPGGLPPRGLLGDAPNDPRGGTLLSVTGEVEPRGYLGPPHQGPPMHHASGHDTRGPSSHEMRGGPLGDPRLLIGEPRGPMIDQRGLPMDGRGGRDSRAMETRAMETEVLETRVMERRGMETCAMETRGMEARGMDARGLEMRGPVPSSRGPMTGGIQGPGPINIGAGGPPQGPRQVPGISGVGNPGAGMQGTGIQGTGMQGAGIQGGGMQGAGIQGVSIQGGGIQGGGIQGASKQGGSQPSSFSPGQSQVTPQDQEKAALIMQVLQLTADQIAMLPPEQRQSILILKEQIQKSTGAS
Chain of UniProt P67870 (P67870 whole entry): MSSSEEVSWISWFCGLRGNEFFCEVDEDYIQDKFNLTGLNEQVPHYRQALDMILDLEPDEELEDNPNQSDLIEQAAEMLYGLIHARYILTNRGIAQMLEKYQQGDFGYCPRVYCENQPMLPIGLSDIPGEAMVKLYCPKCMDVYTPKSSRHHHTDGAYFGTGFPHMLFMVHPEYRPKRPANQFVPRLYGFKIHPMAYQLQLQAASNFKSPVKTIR

For CRYZL1 (UniProt O95825), the thermal stability z-score was -0.0756 in assay [1] (setting [3]), -0.692 in assay [1] (arsenate co-treatment: none) and -0.358 in assay [2].

For CS (UniProt O75390), the figures for the thermal stability z-score in assay [1] (setting [3]), in assay [1] (arsenate co-treatment: none) and in assay [2] were -0.341, 0.0055 and 0.561, respectively.

With CSDE1 (UniProt O75534), the thermal stability z-score is -0.138 in assay [1] (setting [3]), 0.281 in assay [1] (arsenate co-treatment: none) and -0.273 in assay [2].

With CSE1L (UniProt P55060), the thermal stability z-score in assay [1] (setting [3]) was 0.582; in assay [1] (arsenate co-treatment: none) it was 0.825; in assay [2], 0.016.

With CSF2RA (UniProt P15509), the thermal stability z-score in assay [1] (setting [3]) came to 0.513; in assay [1] (arsenate co-treatment: none), 0.365; in assay [2], 0.19.

Regarding CSK (UniProt P41240), the thermal stability z-score is 0.116 in assay [1] (setting [3]), 0.433 in assay [1] (arsenate co-treatment: none) and -0.218 in assay [2].

CSNK1A1 (UniProt P48729): the thermal stability z-score is -0.534 in assay [1] (setting [3]), -0.478 in assay [1] (arsenate co-treatment: none) and 1.08 in assay [2].

As to CSNK1E (UniProt P49674), the thermal stability z-score in assay [1] (setting [3]) was 0.18; in assay [1] (arsenate co-treatment: none), -0.0385; in assay [2], -0.184.

On to CSNK2A1 (UniProt P68400), for which the figures for the thermal stability z-score in assay [1] (setting [3]), in assay [1] (arsenate co-treatment: none) and in assay [2] were 0.541, 0.00111 and 0.489, respectively.

In the case of CSNK2A2 (UniProt P19784), the thermal stability z-score came out at 0.339 in assay [1] (setting [3]), 0.183 in assay [1] (arsenate co-treatment: none) and 0.00534 in assay [2].

Turning to CSNK2B (UniProt P67870), the thermal stability z-score turned out to be 1.66 in assay [1] (setting [3]), 1.48 in assay [1] (arsenate co-treatment: none) and 0.656 in assay [2].

Consider CSPG4 (UniProt Q6UVK1), for which the thermal stability z-score in assay [1] (setting [3]) was -0.203; in assay [1] (arsenate co-treatment: none), -0.907; in assay [2], -0.945.

With CSRP1 (UniProt P21291), the thermal stability z-score is 0.858 in assay [1] (setting [3]), 0.655 in assay [1] (arsenate co-treatment: none) and 0.517 in assay [2].

CSRP2 (UniProt Q16527): the thermal stability z-score in assay [1] (setting [3]) is 0.688; in assay [1] (arsenate co-treatment: none), 0.0492; in assay [2], -0.0511.

Take CST3 (UniProt P01034): the thermal stability z-score in assay [1] (setting [3]) is -0.744; in assay [1] (arsenate co-treatment: none), -0.0182; in assay [2], 0.472.

With CSTB (UniProt P04080), the thermal stability z-score in assay [1] (setting [3]) is 0.399; in assay [1] (arsenate co-treatment: none) it was 0.0839; in assay [2], 0.59.

As to CSTF1 (UniProt Q05048), the thermal stability z-score was -0.533 in assay [1] (setting [3]), 0.0516 in assay [1] (arsenate co-treatment: none) and -1.45 in assay [2].

On to CSTF2 (UniProt P33240), for which the thermal stability z-score came out at 1.09 in assay [1] (setting [3]), 0.979 in assay [1] (arsenate co-treatment: none) and 0.756 in assay [2].

As for CSTF2T (UniProt Q9H0L4), the results for the thermal stability z-score in assay [1] (setting [3]), in assay [1] (arsenate co-treatment: none) and in assay [2] were 0.0672, -0.0883 and 0.141, respectively.

CSTF3 (UniProt Q12996): the thermal stability z-score is 0.159 in assay [1] (setting [3]), 0.0381 in assay [1] (arsenate co-treatment: none) and -0.661 in assay [2].

For CTAG2 (UniProt O75638), the values for the thermal stability z-score in assay [1] (setting [3]), in assay [1] (arsenate co-treatment: none) and in assay [2] were -0.394, 0.0387 and 0.617, respectively.

Turning to CTBP1 (UniProt Q13363), the thermal stability z-score in assay [1] (setting [3]) was 1.13; in assay [1] (arsenate co-treatment: none), -0.19; in assay [2], 0.629.

For CTBP2 (UniProt P56545), the values for the thermal stability z-score in assay [1] (setting [3]), in assay [1] (arsenate co-treatment: none) and in assay [2] were 0.985, -0.0596 and 0.448, respectively.

The values are drawn from the supplement of paper PMC12463676, “Small-molecule dissolution of stress granules by redox modulation benefits ALS models” (Nature Chemical Biology, 2025).
